Measurements taken from patent US11643436B2, “Polypeptide compound, pharmaceutical composition, preparation method and application thereof” (CHENGDU SINTANOVO BIOTECHNOLOGY CO., LTD., priority 2019, dated 2023).
Where two headings read alike, the source gives them in different places.

Legend:
human δ-opioid receptor = human δ-opioid receptor (Homo sapiens (Human), UniProt P41143); test: Forskolin-stimulated cAMP inhibition in HEK293 cells, δ-opioid receptor; type: cell-based; conditions: HEK293 cells highly expressing human δ-opioid receptor, read-out: DOR (EC50)
Method: (§1) Forskolin can stimulate the release of cAMP from HEK293 cells with high expression of human κ (or μ, or δ)-opioid receptors. […] The efficacy of the compounds of the invention as κ-opioid receptor agonists was determined by measuring the ability of the compounds of Examples to inhibit adenylate cyclase activity.
(§2) Cell culture: The HEK293 cell line highly expressing human κ (or μ, or δ)-opioid receptor were cultured in DMEM medium containing 10% FBS.
(§3) Stimulation: the test compound was 4-fold diluted in a gradient manner to obtain 10 concentrations, and 50 nl of each was transferred to a 384-well plate, and then 10 nl Forskolin was added; the cells were digested, re-suspended, and counted; and then 10 μl of cell suspension (5×10^5 cell/mL) was added, and the cells were mixed gently, and incubated at 23° C. for 60 minutes.
(§4) Detection: cAMP Assay Kit (Cisbio) was used, cAMPD2 and Anti-cAMP conjugate were added, and the resultant mixture was incubated for 1 h at room temperature. The plate was read using envision (Perkin Elmer) and EC50 was obtained by means of fitting with a four-parameter equation.

human μ-opioid receptor = human μ-opioid receptor (Homo sapiens (Human), UniProt P35372); test: Forskolin-stimulated cAMP inhibition in HEK293 cells, μ-opioid receptor; type: cell-based; conditions: HEK293 cells highly expressing human μ-opioid receptor, read-out: MOR (EC50)
Method: as §1, §2, §3, §4

human κ-opioid receptor = human κ-opioid receptor (Homo sapiens (Human), UniProt P41145); test: Forskolin-stimulated cAMP inhibition in HEK293 cells, κ-opioid receptor agonism; type: cell-based; conditions: HEK293 cells highly expressing human κ-opioid receptor, read-out: KOR (EC50)
Method: as §1, §2, §3, §4

[1] = Caco-2 membrane permeability assay; type: in vitro ADME; conditions: human, Caco-2, A-B direction, pH 7.4, 37° C.
Method: The Caco-2 cell line is a human colon adenocarcinoma cell line that differentiates in culture and is used to model the epithelial lining of the human small intestine. Compounds of the present invention were tested in a membrane permeability assay using Caco-2 cell membrane layer in a standard assay. The apparent permeability coefficient (Papp) can be determined in the apical-to-basolateral (A-B) direction across cell monolayers cultured on 96-well polycarbonate membrane filters. The compound was maintained at pH 7.4 on the […] at a concentration of 5 μM, and the test plate was gently shaken and incubated at 37° C. for 120 minutes. Samples were taken at time zero from the donor side and at the end of the incubation period from both the donor and acceptor sides. Samples were analyzed by HPLC-MS/MS. The Papp value (expressed as […]) was then calculated based on the appearance rate of compound on the recipient side. Papp can be calculated by the following equation: Papp=(VA×[drug]acceptor)/(Area×Time×[drug]initial, donor) wherein Papp is the apparent permeability; VA is the volume of the acceptor side, Area is the surface area of the membrane, [drug]initial, donor is the concentration on the donor side at time zero, [drug]acceptor is the concentration of the compounds on the recipient side at the end of the incubation period, Time is the total incubation time.

ICR male mice = test: Acetic acid writhing test in mice; type: in vivo; conditions: IV administration 15 minutes before 0.6% acetic acid i.p.; writhes within 15 min
Method: The analgesic effect of the compound of the invention was evaluated by measuring the analgesic ED50 of the compounds of Examples in the acetic acid writhing test in mice.
The ICR male mice (18-25 g) were randomly separated into the drug group and the model group. 15 minutes after IV administration, 0.6% (v/v) acetic acid solution was intraperitoneally injected at 10 mL/kg. The number of writhes of the mice within 15 min was counted. The inhibition rate on the writhes was calculated based on the number of writhes. The ED50 of the compound to be tested was calculated based on inhibition rate according to a four-parameter equation.

cytochrome P450 CYP 2C9 = cytochrome P450 CYP 2C9 (Homo sapiens (Human), UniProt P11712); test: Inhibition of cytochrome P450 in human liver microsomes, CYP 2C9; type: in vitro ADME
Method: (§5) The human liver microsomes (0.253 mg/mL protein) containing cytochrome P450, test compounds (0.05-50 μM), CYPs substrates (10 μM […], 5 μM diclofenac, 30 μM mephenytoin, 5 μM dextromethorphan hydrobromide, 2 μM midazolam), 1.0 mM NADP were incubated at 37° C. for 10 minutes. Naflavone, sulfafenpyrazole, N-3-benzylnivan, quinidine, and ketoconazole were used as reference inhibitors.

cytochrome P450 CYP 3A4 = cytochrome P450 CYP 3A4 (Homo sapiens (Human), UniProt P08684); test: Inhibition of cytochrome P450 in human liver microsomes, CYP 3A4; type: in vitro ADME
Method: as §5

cytochrome P450 CYP 2D6 = cytochrome P450 CYP 2D6 (Homo sapiens (Human), UniProt P10635); test: Inhibition of cytochrome P450 in human liver microsomes, CYP 2D6; type: in vitro ADME
Method: as §5

cytochrome P450 CYP 2C19 = cytochrome P450 CYP 2C19 (Homo sapiens (Human), UniProt P33261); test: Inhibition of cytochrome P450 in human liver microsomes, CYP 2C19; type: in vitro ADME
Method: as §5

cytochrome P450 CYP 1A2 = cytochrome P450 CYP 1A2 (Homo sapiens (Human), UniProt P05177); test: Inhibition of cytochrome P450 in human liver microsomes, CYP 1A2; type: in vitro ADME
Method: as §5

Chain of human δ-opioid receptor (P41143 whole entry, looked up): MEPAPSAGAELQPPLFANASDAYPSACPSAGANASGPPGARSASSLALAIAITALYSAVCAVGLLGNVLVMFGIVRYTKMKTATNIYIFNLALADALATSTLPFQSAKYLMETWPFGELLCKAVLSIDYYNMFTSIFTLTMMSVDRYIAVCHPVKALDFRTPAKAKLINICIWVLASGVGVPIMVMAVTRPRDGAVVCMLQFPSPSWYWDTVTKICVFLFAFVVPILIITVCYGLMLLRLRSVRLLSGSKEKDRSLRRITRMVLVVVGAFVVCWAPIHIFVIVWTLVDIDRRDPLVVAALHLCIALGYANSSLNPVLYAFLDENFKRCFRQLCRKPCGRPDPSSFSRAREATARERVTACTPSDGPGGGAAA
Chain of cytochrome P450 CYP 2C9 (P11712 whole entry): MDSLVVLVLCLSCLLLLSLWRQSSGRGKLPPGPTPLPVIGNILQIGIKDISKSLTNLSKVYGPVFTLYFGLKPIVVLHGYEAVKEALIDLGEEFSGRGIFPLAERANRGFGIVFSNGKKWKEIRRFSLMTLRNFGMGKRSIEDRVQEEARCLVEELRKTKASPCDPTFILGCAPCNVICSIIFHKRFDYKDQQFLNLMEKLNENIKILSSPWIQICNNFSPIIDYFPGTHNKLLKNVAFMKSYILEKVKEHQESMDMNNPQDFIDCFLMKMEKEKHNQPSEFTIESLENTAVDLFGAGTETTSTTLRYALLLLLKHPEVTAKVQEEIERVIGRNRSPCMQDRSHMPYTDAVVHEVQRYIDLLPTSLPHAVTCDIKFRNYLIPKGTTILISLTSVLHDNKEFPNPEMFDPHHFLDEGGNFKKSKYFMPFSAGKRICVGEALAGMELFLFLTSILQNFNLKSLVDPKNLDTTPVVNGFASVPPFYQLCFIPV
Chain of cytochrome P450 CYP 3A4 (P08684 whole entry): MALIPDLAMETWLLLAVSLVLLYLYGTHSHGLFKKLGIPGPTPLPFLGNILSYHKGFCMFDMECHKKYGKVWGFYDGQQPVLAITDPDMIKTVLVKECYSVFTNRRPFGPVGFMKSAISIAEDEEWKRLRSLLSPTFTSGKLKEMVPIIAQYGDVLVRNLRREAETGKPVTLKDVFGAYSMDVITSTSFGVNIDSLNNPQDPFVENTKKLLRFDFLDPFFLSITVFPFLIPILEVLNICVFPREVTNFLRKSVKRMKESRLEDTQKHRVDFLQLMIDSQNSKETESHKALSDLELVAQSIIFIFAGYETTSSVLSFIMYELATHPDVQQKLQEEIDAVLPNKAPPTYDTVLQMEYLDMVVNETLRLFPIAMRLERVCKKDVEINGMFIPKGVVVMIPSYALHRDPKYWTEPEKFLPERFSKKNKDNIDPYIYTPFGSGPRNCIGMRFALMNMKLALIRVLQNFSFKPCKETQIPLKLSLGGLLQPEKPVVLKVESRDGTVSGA
Chain of cytochrome P450 CYP 2C19 (P33261 whole entry): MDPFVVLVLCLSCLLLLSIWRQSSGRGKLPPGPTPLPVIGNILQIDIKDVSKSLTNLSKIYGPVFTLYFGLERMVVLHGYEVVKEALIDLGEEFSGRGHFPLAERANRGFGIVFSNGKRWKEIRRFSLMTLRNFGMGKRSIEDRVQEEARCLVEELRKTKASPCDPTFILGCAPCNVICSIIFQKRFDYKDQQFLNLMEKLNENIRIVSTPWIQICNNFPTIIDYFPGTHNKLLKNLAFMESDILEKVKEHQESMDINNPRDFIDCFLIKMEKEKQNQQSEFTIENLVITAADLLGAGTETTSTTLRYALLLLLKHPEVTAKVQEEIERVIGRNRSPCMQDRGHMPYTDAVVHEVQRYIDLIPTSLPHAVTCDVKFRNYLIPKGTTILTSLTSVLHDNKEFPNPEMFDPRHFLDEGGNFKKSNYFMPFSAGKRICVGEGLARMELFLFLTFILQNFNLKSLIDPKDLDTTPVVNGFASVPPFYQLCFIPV
Chain of cytochrome P450 CYP 2D6 (P10635 whole entry): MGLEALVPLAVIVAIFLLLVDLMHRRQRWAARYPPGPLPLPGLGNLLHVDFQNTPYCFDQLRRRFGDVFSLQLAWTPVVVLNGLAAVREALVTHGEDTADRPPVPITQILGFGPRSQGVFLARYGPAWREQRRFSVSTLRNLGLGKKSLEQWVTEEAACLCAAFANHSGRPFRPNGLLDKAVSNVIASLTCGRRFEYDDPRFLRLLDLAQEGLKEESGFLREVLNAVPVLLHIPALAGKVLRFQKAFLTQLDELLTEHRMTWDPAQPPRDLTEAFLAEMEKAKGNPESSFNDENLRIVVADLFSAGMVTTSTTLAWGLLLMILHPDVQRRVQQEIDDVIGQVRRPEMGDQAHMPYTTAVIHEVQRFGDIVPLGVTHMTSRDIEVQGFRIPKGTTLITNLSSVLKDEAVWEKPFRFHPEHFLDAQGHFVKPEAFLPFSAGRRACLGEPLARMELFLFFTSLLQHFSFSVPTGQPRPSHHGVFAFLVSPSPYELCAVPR
Chain of cytochrome P450 CYP 1A2 (P05177 whole entry): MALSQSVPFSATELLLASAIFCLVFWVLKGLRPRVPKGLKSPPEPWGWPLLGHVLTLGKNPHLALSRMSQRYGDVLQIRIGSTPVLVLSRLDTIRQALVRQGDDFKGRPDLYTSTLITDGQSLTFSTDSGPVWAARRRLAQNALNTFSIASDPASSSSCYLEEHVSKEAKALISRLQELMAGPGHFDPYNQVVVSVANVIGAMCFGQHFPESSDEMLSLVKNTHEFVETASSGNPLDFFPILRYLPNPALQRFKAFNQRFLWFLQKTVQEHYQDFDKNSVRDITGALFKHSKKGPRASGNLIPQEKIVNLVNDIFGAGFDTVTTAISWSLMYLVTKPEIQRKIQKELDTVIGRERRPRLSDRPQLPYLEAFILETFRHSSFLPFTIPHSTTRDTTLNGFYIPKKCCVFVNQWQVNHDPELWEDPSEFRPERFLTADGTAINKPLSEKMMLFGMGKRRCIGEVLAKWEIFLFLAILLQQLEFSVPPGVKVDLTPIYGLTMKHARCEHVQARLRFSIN

Row | SMILES | EC50 (human δ-opioid receptor) [µM] | EC50 (human μ-opioid receptor) [µM] | EC50 (human κ-opioid receptor) [nM] | Papp A→B at 120 min, 5 μM [1] [×10⁻⁶ cm/s] | also measured
1 | CC(C)C[C@@H](NC(=O)[C@@H](Cc1ccccc1)NC(=O)[C@H](N)Cc1ccccc1)C(=O)N[C@H](CCCCN)C(=O)N1CCC(B(O)O)CC1 [TM-1] | > 10 | > 10 | 0.0984 | – | –
2 | CC(C)C[C@@H](NC(=O)[C@@H](Cc1ccccc1)NC(=O)[C@H](N)Cc1ccccc1)C(=O)N[C@H](CCCCN)C(=O)N1CC[C@@H](B(O)O)C1 [TM-2A, (R)-1-(D-Phe-D-Phe-D-Leu-D-Lys)-3-pyrrolidineboronic acid] | > 10 | > 10 | 0.0331 | < 0.05 | ED50 (ICR male mice): 0.679 µg/kg
3 | CC(C)C[C@@H](NC(=O)[C@@H](Cc1ccccc1)NC(=O)[C@H](N)Cc1ccccc1)C(=O)N[C@H](CCCCN)C(=O)N1CC=C(B(O)O)C1 [TM-3] | > 10 | > 10 | 0.0547 | < 0.2 | –
4 | CC(C)C[C@@H](NC(=O)[C@@H](Cc1ccccc1)NC(=O)[C@H](N)Cc1ccccc1)C(=O)N[C@H](CCCCN)C(=O)N1CCC=C(B(O)O)C1 [TM-5] | > 10 | > 10 | 0.027 | – | –
5 | CC(C)C[C@@H](NC(=O)[C@@H](Cc1ccccc1)NC(=O)[C@H](N)Cc1ccccc1)C(=O)N[C@H](CCCCN)C(=O)N1CCC2(CC1)CC(B(O)O)C2 [TM-7] | > 10 | > 10 | 0.0087 | – | –
6 | CC(C)C[C@@H](NC(=O)[C@@H](Cc1ccccc1)NC(=O)[C@H](N)Cc1ccccc1)C(=O)N[C@H](CCCCN)C(=O)N1CCC(N)(B(O)O)CC1 [TM-8] | > 10 | > 10 | 0.0846 | < 0.1 | –
7 | CC(C)C[C@@H](NC(=O)[C@@H](Cc1ccccc1)NC(=O)[C@H](N)Cc1ccccc1)C(=O)N[C@H](CCCCN)C(=O)N1CCC[C@H]1B(O)O [TM-9A, (R)-1-(D-Phe-D-Phe-D-Leu-D-Lys)-2-pyrrolidineboronic acid] | > 10 | > 10 | – | < 0.05 | ED50 (ICR male mice): 0.377 µg/kg
8 | CC(C)C[C@@H](NC(=O)[C@@H](Cc1ccccc1)NC(=O)[C@H](N)Cc1ccccc1)C(=O)N[C@H](CCCCN)C(=O)N1CCCC[C@H]1B(O)O [TM-13A, (R)-1-(D-Phe-D-Phe-D-Leu-D-Lys)-2-piperidine boronic acid] | > 10 | > 10 | 0.0946 | – | –
9 | COCCOCCNCCCC[C@@H](NC(=O)[C@@H](CC(C)C)NC(=O)[C@@H](Cc1ccccc1)NC(=O)[C@H](N)Cc1ccccc1)C(=O)N1CC[C@H](B(O)O)C1 [TM-22B, (S)-1-(N2-D-Phe-D-Phe-D-Leu-N6-(2-(2-methoxyethoxy)ethyl)-D-Lys)-3-pyrrolidineboronic acid] | > 10 | > 10 | 0.0095 | < 0.1 | IC50 (cytochrome P450 CYP 2C9): > 50 µM; IC50 (cytochrome P450 CYP 3A4): > 50 µM; IC50 (cytochrome P450 CYP 2D6): > 50 µM; IC50 (cytochrome P450 CYP 2C19): > 50 µM; IC50 (cytochrome P450 CYP 1A2): > 50 µM
10 | CC(C)C[C@@H](NC(=O)[C@@H](Cc1ccccc1)NC(=O)[C@H](N)Cc1ccccc1)C(=O)N[C@H](CCCCN)C(=O)NCCB(O)O [TM-26] | – | – | – | < 0.1 | IC50 (cytochrome P450 CYP 2C9; microsomes): > 50 µM; IC50 (cytochrome P450 CYP 3A4; microsomes): > 50 µM; IC50 (cytochrome P450 CYP 2D6; microsomes): > 50 µM; IC50 (cytochrome P450 CYP 2C19; microsomes): > 50 µM; IC50 (cytochrome P450 CYP 1A2; microsomes): > 50 µM
